Literature values in patent US11761043B2, “Machine assay and analysis for selecting antihypertensive drugs” (Geneticure Inc., priority 2014, dated 2023).

Tests used:
CYP2D6 [1] = biological target: CYP2D6 (Homo sapiens, UniProt P10635); details: in vivo
CYP2D6 [2] = details: individuals homozygous for adenine (AA) at rs3892097 vs subjects not homozygous AA
renin = details: cytosine (guanine) variant of renin rs12750834

CYP2D6 (Homo sapiens, UniProt P10635), sequence (P10635 whole entry): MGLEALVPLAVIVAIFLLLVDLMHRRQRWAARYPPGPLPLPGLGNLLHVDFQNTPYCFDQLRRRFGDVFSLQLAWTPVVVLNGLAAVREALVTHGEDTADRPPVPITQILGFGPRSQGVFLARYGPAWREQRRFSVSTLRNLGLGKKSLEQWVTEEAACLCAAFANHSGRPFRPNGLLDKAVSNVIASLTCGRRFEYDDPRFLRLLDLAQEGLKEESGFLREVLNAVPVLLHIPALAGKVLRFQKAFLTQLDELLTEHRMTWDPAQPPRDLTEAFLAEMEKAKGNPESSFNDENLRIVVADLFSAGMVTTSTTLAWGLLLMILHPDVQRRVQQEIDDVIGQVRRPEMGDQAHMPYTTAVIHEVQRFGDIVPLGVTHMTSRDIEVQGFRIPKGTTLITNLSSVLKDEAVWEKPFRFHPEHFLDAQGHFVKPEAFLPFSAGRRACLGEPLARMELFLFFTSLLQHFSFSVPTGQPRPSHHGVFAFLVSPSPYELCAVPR

Row | Structure (SMILES) | plasma levels after taking these drugs (CYP2D6 [2]) | further results
1 | COc1ccccc1OCCNCC(O)COc1cccc2[nH]c3ccccc3c12 (stereo not shown) [carvedilol] |  | requirement of CYP2D6 for metabolism (CYP2D6 [1]): do not require CYP2D6 for their metabolism
2 | COCCc1ccc(OCC(O)CNC(C)C)cc1 (stereo not shown) [metoprolol] | higher plasma levels | 
3 | CC(C)NCC(O)COc1cccc2ccccc12 (stereo not shown) [propranolol] | higher plasma levels | 
4 | CCCCC(=O)N(Cc1ccc(-c2ccccc2-c2nnn[nH]2)cc1)[C@H](C(=O)O)C(C)C [valsartan] |  | reduction in blood pressure upon administration (renin): greater reduction in blood pressure
